The record followed here is patent publication US20230183237A1, “COMPETITIVE AND NONCOMPETITIVE INHIBITORS OF THE MUSCARINIC ACETYLCHOLINE RECEPTOR M5” (Vanderbilt University, priority 2020, published 2023).

This assay addresses T1, hM5 (Homo sapiens, UniProt P08912).
T1 construct: expressed in transfected cells
T1 sequence (P08912 1-532): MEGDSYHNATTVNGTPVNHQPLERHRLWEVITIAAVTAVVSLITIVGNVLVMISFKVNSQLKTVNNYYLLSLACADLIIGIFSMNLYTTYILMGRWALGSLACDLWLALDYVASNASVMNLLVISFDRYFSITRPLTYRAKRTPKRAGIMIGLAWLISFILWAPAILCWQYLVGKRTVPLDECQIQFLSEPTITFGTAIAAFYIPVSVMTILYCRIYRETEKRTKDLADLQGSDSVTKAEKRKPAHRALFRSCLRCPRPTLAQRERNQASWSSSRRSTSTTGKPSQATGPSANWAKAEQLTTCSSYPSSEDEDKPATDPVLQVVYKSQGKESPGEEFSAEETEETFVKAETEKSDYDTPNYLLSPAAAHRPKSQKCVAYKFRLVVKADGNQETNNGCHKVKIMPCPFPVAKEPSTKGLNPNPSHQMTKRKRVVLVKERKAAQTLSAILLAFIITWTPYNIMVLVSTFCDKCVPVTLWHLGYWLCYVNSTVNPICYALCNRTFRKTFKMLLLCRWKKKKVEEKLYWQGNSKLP
As to the kind of experiment: Calcium mobilization concentration-response (IC50 vs EC80 acetylcholine), CHO hM5. Format: cell-based. The settings on record: CELL LINE hM5; calcium mobilization, EC80 acetylcholine addition; read-out: IC50. Summed up: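 CHO cells stably expressing hM5, dye-loaded, in HBSS/20 mM HEPES/2.5 mM probenecid, pH 7.4. Compounds were pre-incubated 140 s before an EC80 acetylcholine challenge, with calcium flux read kinetically.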
Background: A change in cytosolic calcium serves as a functional read-out for many receptors and channels.
On to `COc1cc2ncnn2cc1C1CCN(S(=O)(=O)c2cnn(C)c2C)CC1` [Compound 201, 6-(1-((1,5-dimethyl-1H-pyrazol-4-yl)sulfonyl)piperidin-4-yl)-7-methoxy-[1,2,4]triazolo[1,5-a]pyridine], for which the IC50 is 765 nM.

Consider `Cc1sc(C(N)=O)nc1C1=CCN(S(=O)(=O)c2cnn(C)c2C)CC1` [Compound 202, 4-(1-((1,5-dimethyl-1H-pyrazol-4-yl)sulfonyl)-1,2,3,6-tetrahydropyridin-4-yl)-5-methylthiazole-2-carboxamide], for which the IC50 was > 10000 nM.

Consider `Cc1sc(C(N)=O)nc1C1=CCN(S(=O)(=O)c2ccc3c(c2)CCO3)CC1` [Compound 203, 4-(1-((2,3-dihydrobenzofuran-5-yl)sulfonyl)-1,2,3,6-tetrahydropyridin-4-yl)-5-methylthiazole-2-carboxamide], for which the IC50 was > 10000 nM.

`Cc1sc(C#N)nc1C1=CCN(S(=O)(=O)c2cnn(C)c2C)CC1` [Compound 204, 4-(1-((1,5-dimethyl-1H-pyrazol-4-yl)sulfonyl)-1,2,3,6-tetrahydropyridin-4-yl)-5-methylthiazole-2-carbonitrile]: the concentration for half-maximal inhibition (IC50) was > 10000 nM.

In the case of `Cc1sc(C#N)nc1C1=CCN(S(=O)(=O)c2ccc3c(c2)CCO3)CC1` [Compound 205, 4-(1-((2,3-dihydrobenzofuran-5-yl)sulfonyl)-1,2,3,6-tetrahydropyridin-4-yl)-5-methylthiazole-2-carbonitrile], the half-maximal inhibitory concentration (IC50) was > 10000 nM.

On to `O=S(=O)(c1cnc2n1CCC2)N1CC=C(c2cc3ncnn3cc2Cl)CC1` [Compound 206, 6-chloro-7-(1-((6,7-dihydro-5H-pyrrolo[1,2-a]imidazol-3-yl)sulfonyl)-1,2,3,6-tetrahydropyridin-4-yl)-[1,2,4]triazolo[1,5-a]pyridine], for which the IC50 was > 10000 nM.

With `O=S(=O)(c1cnc2n1CCC2)N1CC=C(c2cn3ncnc3cc2Cl)CC1` [Compound 207, 7-chloro-6-(1-((6,7-dihydro-5H-pyrrolo[1,2-a]imidazol-3-yl)sulfonyl)-1,2,3,6-tetrahydropyridin-4-yl)-[1,2,4]triazolo[1,5-a]pyridine], the half-maximal inhibitory concentration (IC50) was determined as 1600 nM.

For `Cc1cc2ncnn2nc1C1CCN(S(=O)(=O)c2cnc3n2CCC3)CC1` [Compound 208, 6-(1-((6,7-dihydro-5H-pyrrolo[1,2-a]imidazol-3-yl)sulfonyl)piperidin-4-yl)-7-methyl-[1,2,4]triazolo[1,5-b]pyridazine], the IC50 is > 10000 nM.

As for `Cc1cc(C#N)cnc1C1=CCN(S(=O)(=O)c2cnn(C)c2C)CC1` [Compound 209, 1′-((1,5-dimethyl-1H-pyrazol-4-yl)sulfonyl)-3-methyl-1′,2′,3′,6′-tetrahydro-[2,4′-bipyridine]-5-carbonitrile], the IC50 was > 10000 nM.

Turning to `Cc1cc(C#N)cnc1C1=CCN(S(=O)(=O)c2ccc3c(c2)CCO3)CC1` [Compound 210, 1′-((2,3-dihydrobenzofuran-5-yl)sulfonyl)-3-methyl-1′,2′,3′,6′-tetrahydro-[2,4′-bipyridine]-5-carbonitrile], the concentration for half-maximal inhibition (IC50) is > 10000 nM.

In the case of `Cc1sc(C(N)=O)nc1C1CCN(S(=O)(=O)c2ccc3c(c2)CCO3)CC1` [Compound 211, 4-(1-((2,3-dihydrobenzofuran-5-yl)sulfonyl)piperidin-4-yl)-5-methylthiazole-2-carboxamide], the half-inhibitory concentration (IC50) is > 10000 nM.

For the compound `Cc1cn2ncnc2cc1C1=CCN(S(=O)(=O)c2cnn(C)c2C)CC1` [Compound 212, 7-(1-((1,5-dimethyl-1H-pyrazol-4-yl)sulfonyl)-1,2,3,6-tetrahydropyridin-4-yl)-6-methyl-[1,2,4]triazolo[1,5-a]pyridine], the IC50 amounted to 1400 nM.

In the case of `Cc1sc(C(N)=O)nc1C1CCN(S(=O)(=O)c2cnn(C)c2C)CC1` [Compound 213, 4-(1-((1,5-Dimethyl-1H-pyrazol-4-yl)sulfonyl)piperidin-4-yl)-5-methylthiazole-2-carboxamide], the IC50 amounted to 5800 nM.

For the compound `Cc1ncc(S(=O)(=O)N2CCC(c3nn4ncnc4cc3C)CC2)s1` [Compound 214, 2-methyl-5-((4-(7-methyl-[1,2,4]triazolo[1,5-b]pyridazin-6-yl)piperidin-1-yl)sulfonyl)thiazole], the half-inhibitory concentration (IC50) was > 10000 nM.

For the compound `Cc1nc(C)c(S(=O)(=O)N2CCC(c3nn4ncnc4cc3C)CC2)s1` [Compound 215, 2,4-dimethyl-5-((4-(7-methyl-[1,2,4]triazolo[1,5-b]pyridazin-6-yl)piperidin-1-yl)sulfonyl)thiazole], the IC50 is > 10000 nM.

For the compound `Cc1cc2ncnn2nc1C1CCN(S(=O)(=O)c2cnc(C)n2C)CC1` [Compound 216, 6-(1-((1,2-dimethyl-1H-imidazol-5-yl)sulfonyl)piperidin-4-yl)-7-methyl-[1,2,4]triazolo[1,5-b]pyridazine], the IC50 was found to be 689 nM.

In the case of `Cc1cc(C#N)cnc1C1CCN(S(=O)(=O)c2cnn(C)c2C)CC1` [Compound 217, 6-(1-((1,5-Dimethyl-1H-pyrazol-4-yl)sulfonyl)piperidin-4-yl)-5-methylnicotinonitrile], the IC50 is > 10000 nM.

For `Cc1cc(C#N)cnc1C1CCN(S(=O)(=O)c2ccc3c(c2)CCO3)CC1` [Compound 218, 6-(1-((2,3-dihydrobenzofuran-5-yl)sulfonyl)piperidin-4-yl)-5-methylnicotinonitrile], the IC50 is > 10000 nM.

Consider `Cc1cc2ncnn2cc1C1CCN(S(=O)(=O)c2cnc3n2CCC3)CC1` [Compound 219, 6-(1-((6,7-dihydro-5H-pyrrolo[1,2-a]imidazol-3-yl)sulfonyl)piperidin-4-yl)-7-methyl-[1,2,4]triazolo[1,5-a]pyridine], for which the IC50 was > 10000 nM.

For the compound `Cc1cc2ncnn2cc1C1CCN(S(=O)(=O)c2c(C)nn(C)c2C(F)(F)F)CC1` [Compound 220, 6-(1-((1,3-dimethyl-5-(trifluoromethyl)-1H-pyrazol-4-yl)sulfonyl)piperidin-4-yl)-7-methyl-[1,2,4]triazolo[1,5-a]pyridine], the IC50 worked out at 38 nM.

Regarding `Cc1cn2ncnc2cc1C1CCN(S(=O)(=O)c2cnn(C)c2C)CC1` [Compound 222, 7-(1-((1,5-Dimethyl-1H-pyrazol-4-yl)sulfonyl)piperidin-4-yl)-6-methyl-[1,2,4]triazolo[1,5-a]pyridine], the IC50 came out at 276 nM.

Consider `Cc1ncc(S(=O)(=O)N2CC=C(c3cc4ncnn4cc3Cl)CC2)n1C` [Compound 223, 6-chloro-7-(1-((1,2-dimethyl-1H-imidazol-5-yl)sulfonyl)-1,2,3,6-tetrahydropyridin-4-yl)-[1,2,4]triazolo[1,5-a]pyridine], for which the IC50 was found to be 660 nM.

For the compound `Cc1ncc(S(=O)(=O)N2CC=C(c3cn4ncnc4cc3Cl)CC2)n1C` [Compound 224, 7-chloro-6-(1-((1,2-dimethyl-1H-imidazol-5-yl)sulfonyl)-1,2,3,6-tetrahydropyridin-4-yl)-[1,2,4]triazolo[1,5-a]pyridine], the half-maximal inhibitory concentration (IC50) was 12 nM.

Consider `Cc1sc(C#N)nc1C1CCN(S(=O)(=O)c2cnn(C)c2C)CC1` [Compound 225, 4-(1-((1,5-dimethyl-1H-pyrazol-4-yl)sulfonyl)piperidin-4-yl)-5-methylthiazole-2-carbonitrile], for which the IC50 was > 10000 nM.

Consider `Cc1sc(C#N)nc1C1CCN(S(=O)(=O)c2ccc3c(c2)CCO3)CC1` [Compound 226], for which the IC50 was 1400 nM.

Regarding `Cc1nn(C)c(C(F)(F)F)c1S(=O)(=O)N1CCC(c2cn3ncnc3cc2F)CC1` [Compound 227, 6-(1-((1,3-dimethyl-5-(trifluoromethyl)-1H-pyrazol-4-yl)sulfonyl)piperidin-4-yl)-7-fluoro-[1,2,4]triazolo[1,5-a]pyridine], the concentration for half-maximal inhibition (IC50) was found to be 2100 nM.

`Cc1nn(C)c(Cl)c1S(=O)(=O)N1CCC(c2cn3ncnc3cc2F)CC1` [Compound 228, 6-(1-((5-chloro-1,3-dimethyl-1H-pyrazol-4-yl)sulfonyl)piperidin-4-yl)-7-fluoro-[1,2,4]triazolo[1,5-a]pyridine]: the IC50 was 125 nM.

For the compound `Cc1c(S(=O)(=O)N2CCC(c3cn4ncnc4cc3F)CC2)cnn1C(F)F` [Compound 230, 6-(1-((1-(difluoromethyl)-5-methyl-1H-pyrazol-4-yl)sulfonyl)piperidin-4-yl)-7-fluoro-[1,2,4]triazolo[1,5-a]pyridine], the concentration for half-maximal inhibition (IC50) was > 10000 nM.

Consider `Cn1ncc(S(=O)(=O)N2CCC(c3cn4ncnc4cc3F)CC2)c1C(F)F` [Compound 231, 6-(1-((5-(difluoromethyl)-1-methyl-1H-pyrazol-4-yl)sulfonyl)piperidin-4-yl)-7-fluoro-[1,2,4]triazolo[1,5-a]pyridine], for which the concentration for half-maximal inhibition (IC50) was 176 nM.

In the case of `O=S(=O)(c1cnn2c1CCC2)N1CCC(c2cn3ncnc3cc2F)CC1` [Compound 232, 6-(1-((5,6-dihydro-4H-pyrrolo[1,2-b]pyrazol-3-yl)sulfonyl)piperidin-4-yl)-7-fluoro-[1,2,4]triazolo[1,5-a]pyridine], the half-inhibitory concentration (IC50) amounted to 26 nM.

As to `O=S(=O)(c1cnc2n1CCC2)N1CCC(c2cn3ncnc3cc2F)CC1` [Compound 233, 6-(1-((6,7-dihydro-5H-pyrrolo[1,2-a]imidazol-3-yl)sulfonyl)piperidin-4-yl)-7-fluoro-[1,2,4]triazolo[1,5-a]pyridine], the IC50 was > 10000 nM.

In the case of `Cc1ncc(S(=O)(=O)N2CCC(c3cn4ncnc4cc3F)CC2)n1C` [Compound 234, 6-(1-((1,2-dimethyl-1H-imidazol-5-yl)sulfonyl)piperidin-4-yl)-7-fluoro-[1,24]triazolo[1,5-a]pyridine], the IC50 turned out to be 407 nM.

What is called IC50 is the concentration that gives 50% inhibition.
